Experimental findings from ChEMBL document CHEMBL5230136, “A review: Biologically active 3,4-heterocycle-fused coumarins” (Eur J Med Chem, 2021) are described below.

Values after ≈ are worked out from the molar mass of the structure shown.

As a reminder, the inhibition is the percentage by which the read-out fell short of the control. One may read the IC50 as the concentration needed to halve the response being measured. One may read the MIC as the lowest concentration found to suppress growth. For orientation: EC50 means the concentration at which the effect is half-maximal. A low value points to higher potency in that assay.

Data set [1] concerns Pseudomonas aeruginosa. As to the kind of experiment: Antibacterial activity against Pseudomonas aeruginosa assessed as zone of inhibition. Type of data set: functional.
The subject of data set [2] is Aspergillus niger. Briefly: Antifungal activity against Aspergillus niger assessed as zone of inhibition. It counts as functional.
Data set [3] relates to Escherichia coli. Briefly: Antibacterial activity against Escherichia coli assessed as zone of inhibition. It counts as functional.
Data set [4] deals with Bacillus cereus. As to the kind of experiment: Antibacterial activity against Bacillus cereus assessed as zone of inhibition. It counts as functional.
In data set [5] the test system is Klebsiella aerogenes. As to the kind of experiment: Antibacterial activity against Enterobacter aerogenes assessed as zone of inhibition. It counts as functional.
The subject of data set [6] is Bacillus subtilis. As to the kind of experiment: Antibacterial activity against Bacillus subtilis assessed as zone of inhibition. Type of data set: functional.
In data set [7] the test system is Penicillium italicum. Briefly: Antifungal activity against Penicillium italicum assessed as zone of inhibition. Type of data set: functional.
The test system of data set [8] is Fusarium oxysporum. As to the kind of experiment: Antifungal activity against Fusarium oxysporum assessed as zone of inhibition. Type of data set: functional.
Data set [9] deals with Staphylococcus aureus. As to the kind of experiment: Antibacterial activity against Staphylococcus aureus assessed as zone of inhibition. Type of data set: functional.
The test system of data set [10] is MCF7. As to the kind of experiment: Inhibition of CKII in human MCF7 cells at 50 uM assessed as inhibition. Type of data set: cell-based.
The test system of data set [11] is HCT-116. As to the kind of experiment: Inhibition of CKII in human HCT-116 cells at 50 uM assessed as inhibition. It counts as cell-based.
In data set [12] the target is T1, D(4) dopamine receptor (Homo sapiens) (UniProt P21917).
T1 sequence (whole entry): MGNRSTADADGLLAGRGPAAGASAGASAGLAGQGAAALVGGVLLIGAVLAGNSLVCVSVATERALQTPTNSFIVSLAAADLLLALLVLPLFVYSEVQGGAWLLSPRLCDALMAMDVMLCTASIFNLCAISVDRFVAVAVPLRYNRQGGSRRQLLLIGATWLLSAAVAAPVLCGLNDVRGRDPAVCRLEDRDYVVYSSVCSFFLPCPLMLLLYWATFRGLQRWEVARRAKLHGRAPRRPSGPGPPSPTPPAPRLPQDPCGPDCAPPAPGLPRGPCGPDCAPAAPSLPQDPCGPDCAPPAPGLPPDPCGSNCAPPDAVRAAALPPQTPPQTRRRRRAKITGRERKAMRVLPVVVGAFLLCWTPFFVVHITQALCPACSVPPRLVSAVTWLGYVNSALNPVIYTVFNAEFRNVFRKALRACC
Briefly: Inhibition of human D4 receptor.

Data set [13] is described as follows: Cytotoxicity against human HCC-S102 cells assessed as reduction in cell viability. It counts as functional, cell-based.
A short description of data set [14]: Antioxidant activity assessed as FRAP radical activity by FRAP assay. Type of data set: functional.
The subject of data set [15] is HepG2. As to the kind of experiment: Anticancer activity against human HepG2 cells by MTT assay. Type of data set: functional, cell-based. (Formazan colour is commonly taken as a measure of viable cells.)
Data set [16] in a line: Antioxidant activity assessed as DPPH radical scavenging activity. It counts as functional. A general note: DPPH is a stable violet radical that fades when it is reduced.
Data set [17] concerns H69AR. As to the kind of experiment: Cytotoxicity against human NCI-H69AR cells assessed as reduction in cell viability by SRB assay. It counts as functional, cell-based. (Sulforhodamine B stains cellular protein and so reports cell mass.)
Data set [18] has as its system HuCC-A1. Briefly: Antiproliferative activity against human HuCC-A1 cells assessed as reduction in cell proliferation. It counts as functional, cell-based.
The subject of data set [19] is Staphylococcus aureus. Briefly: Antibacterial activity against Staphylococcus aureus ATCC 29213 assessed as reduction in bacterial growth. Type of data set: functional.
The test system of data set [20] is Escherichia coli. As to the kind of experiment: Antibacterial activity against Escherichia coli assessed as bacterial growth inhibition. Type of data set: functional.
For data set [21], the system named is Escherichia coli. As to the kind of experiment: Antibacterial activity against Escherichia coli assessed as bacterial growth inhibition by broth dilution method. Type of data set: functional.
Data set [22] deals with Candida albicans. Briefly: Antifungal activity against Candida albicans assessed as reduction in fungal growth. It counts as functional.
The test system of data set [23] is Staphylococcus epidermidis. As to the kind of experiment: Antibacterial activity against Staphylococcus epidermidis assessed as reduction in bacterial growth. It counts as functional.
For data set [24], the system named is Rhizoctonia solani. As to the kind of experiment: Antifungal activity against Rhizoctonia solani at 150 uM. It counts as functional, organism-based.
The test system of data set [25] is Colletotrichum camelliae. As to the kind of experiment: Antifungal activity against Colletotrichum camelliae. Type of data set: functional, organism-based.
The subject of data set [26] is Botrytis cinerea. Briefly: Antifungal activity against Botrytis cinerea. It counts as functional, organism-based.
Data set [27] is described as follows: Inhibition of wild type HIV-1 protease. Details: species or system Human immunodeficiency virus.
Data set [28] concerns Salmonella enterica. Briefly: Antibacterial activity against Salmonella enterica assessed as bacterial growth inhibition by broth dilution method. It counts as functional.
The subject of data set [29] is Penicillium chrysogenum. As to the kind of experiment: Antifungal activity against Penicillium chrysogenum assessed as zone of inhibition. Type of data set: functional.
The test system of data set [30] is Serratia marcescens. As to the kind of experiment: Antibacterial activity against Serratia marcescens assessed as zone of inhibition. It counts as functional.
Data set [31] concerns Proteus mirabilis. Briefly: Antibacterial activity against Proteus mirabilis assessed as zone of inhibition. Type of data set: functional.
In data set [32] the test system is Aspergillus ochraceus. As to the kind of experiment: Antifungal activity against Aspergillus ochraceus assessed as zone of inhibition. Type of data set: functional.
Data set [33] relates to Serratia marcescens. As to the kind of experiment: Antibacterial activity against Serratia marcescens assessed as zone of inhibition at 20 mg/ml. It counts as functional. Conditions: read-out: IZ.
A short description of data set [34]: Cytotoxicity against human MRC5 cells assessed as reduction in cell viability measured after 72 hrs by MTT assay. Type of data set: toxicity, cell-based.
Data set [35] concerns MCF7. Briefly: Antiproliferative activity against human MCF7 cells assessed as inhibition of cell proliferation measured after 96 hrs by SRB assay. Type of data set: functional, cell-based. The following applies: MCF7, 96 h.
Data set [36] relates to Bacillus cereus. As to the kind of experiment: Antibacterial activity against Bacillus cereus assessed as zone of inhibition at 20 mg/ml. Type of data set: functional. Conditions: read-out: IZ.
Data set [37] concerns Candida albicans. Briefly: […] activity against Candida albicans assessed as zone of inhibition at 20 mg/ml. Type of data set: functional. The following applies: read-out: IZ.

`O=c1[nH]cnc2c1C(c1ccc(Br)cc1)c1c(c3ccccc3oc1=O)O2` (stereo not given): the “inhibition zone (IZ)” value in data set [1] was determined as 10 mm; in [2], 21 mm; in data set [3], 13 mm; in data set [4], 16 mm; in data set [5], 12 mm; in [6] it was 18 mm. Moreover, the “inhibition zone (IZ)” value was 12 mm in data set [7], 20 mm in data set [8] and 22 mm in data set [9].
In the case of `O=c1oc2cc(O)ccc2c2oc3cc(O)ccc3c12`, the inhibition came to 50% in data set [10] and 30% in [11].
Consider `COc1ccc2c(c1)OC(=O)C1CN(CCN3CC4CCC(CC4)C3)CCC21` (stereo not given), for which, in [12], the ID50 came out at 0.035 mg/kg.
Regarding `COc1cc(-c2c3c4cc(OC)c(O)cc4oc(=O)c3n3ccc4cc(O)c(OC)cc4c23)ccc1O` [LAMELLARIN D], the IC50 in [13] was 3.2 µM.
With `O=c1oc2ccccc2c2c1C(c1ccc(Br)cc1O)SCCN2` (stereo in doubt; 203c), the IC50 stood at 0.186 µM in data set [14], 290 µM in [15] and 290 µM in data set [16].
As to `COc1cc([C@@H]2c3cc4c(cc3[C@@H](O[C@@H]3O[C@@H]5CO[C@@H](C)O[C@H]5[C@H](O)[C@H]3O)[C@H]3COC(=O)[C@H]23)OCO4)cc(OC)c1O` [ETOPOSIDE], the values for the IC50 in data set [17] and in data set [18] were 45.9 µM and 6.8 µM, respectively.
In the case of `CC(=O)c1c(O)c2c(cc(O)c3c(=O)oc4c5cccc(C)c5oc(=O)c4c32)oc1=O`, the values for the minimal inhibitory concentration (MIC) in data set [19], in data set [20] and in data set [21] were 150 µM (≈ 63 µg/mL), 100 µM (≈ 42 µg/mL) and 100 µg/mL (≈ 238 µM), respectively.
In the case of `COc1cccc2cc(-c3ccc4c(=O)oc5c(C)cccc5c4n3)c(=O)oc12`, in data set [22], the MIC worked out at 1000 µg/mL (≈ 2590 µM).
`CC(CN1CCC2c3ccccc3OC(=O)C2C1)N(C)C` (stereo not given) yielded an ID50 in data set [12] of 0.192 mg/kg.
For `COc1cccc2c1OC(=O)C1C(C)=Nc3[nH]n(-c4cc(Cl)ccc4Cl)c(=O)c3C21` (stereo not given), the minimal inhibitory concentration (MIC) in [23] was 25 µM (≈ 11.1 µg/mL).
Molecule `CCOc1ccc2c(c1)oc(=O)c1c(C)coc12` registered an EC50 in data set [24] of 8.87 µg/mL (≈ 36.3 µM).
The molecule `COc1ccc2c(c1)oc(=O)c1c(C)coc12` showed an EC50 in data set [24] of 3.57 µg/mL (≈ 15.5 µM).
Take `COc1ccc2ccc(=O)oc2c1CC=C(C)C` [OSTHOLE]: the EC50 in data set [24] was determined as 6.88 µg/mL (≈ 28.2 µM); in data set [25], 16.8 µg/mL (≈ 68.9 µM); in [26], 6.45 µg/mL (≈ 26.4 µM).
`COc1ccc(-c2c3c4cc(OC)c(O)cc4oc(=O)c3n3ccc4cc(O)c(OC)cc4c23)cc1O` showed an IC50 in data set [27] of 8 µM.
Turning to `CCc1c(C)c(=O)oc2c1c(=O)oc1ccccc12`, the MIC in data set [28] was 50 µM (≈ 12.8 µg/mL).
Regarding `CCOC(=O)c1nc2c3c(ncn2n1)Oc1c(c(=O)oc2ccccc12)C3c1ccc(Cl)cc1` (stereo not given), the “inhibition zone (IZ)” value is listed as 20 mm in data set [29]; 14 mm in [2]; 22 mm in [4]; 25 mm in data set [30]; 23 mm in data set [31]; 19 mm in data set [32]. The “inhibition zone (IZ)” value in [9] was 23 mm. In addition, in data set [33], the zone of inhibition at 20000 µg/mL amounted to 25 mm.
In data set [25], `Cc1coc2c1c(=O)oc1ccccc12` gave an EC50 of 8.74 µg/mL (≈ 43.7 µM).
`N#CC1=C(N)Oc2c(c(=O)oc3ccccc23)C1c1ccc(Br)cc1` (stereo not given): the “inhibition zone (IZ)” value in [1] is listed as 10 mm; in data set [2], 12 mm; in data set [3], 20 mm; in data set [4], 19 mm; in [5], 10 mm; in data set [6] it was 11 mm. Moreover, the “inhibition zone (IZ)” value came to 11 mm in data set [7], 20 mm in data set [8] and 28 mm in data set [9].
`COc1cc2c(cc1O)oc(=O)c1c2c(-c2ccc(OC)c(OC)c2)c2c3cc(OC)c(O)cc3ccn21`: in [34], the IC50 at 72 h is more than 97 µM.
With `O=c1oc2ccccc2c2[se]c(CN3CCOCC3)c(Nc3ccncc3)c12`, in data set [35], the IC50 was 18 µM.
With `NC1NC=NC2=C1C(c1ccc(Br)cc1)c1c(c3ccccc3oc1=O)O2` (stereo not given), the “inhibition zone (IZ)” value in [1] worked out at 18 mm; in data set [2] it was 14 mm; in data set [3] it was 21 mm; in data set [5] it was 20 mm; in data set [7], 16 mm; in [8] it was 18 mm. Moreover, the “inhibition zone (IZ)” value in [9] was 29 mm. Moreover, the zone of inhibition at 20000 µg/mL in data set [36] stood at 22 mm.
Consider `Nc1cc(=O)[nH]c2c3c(=O)oc4ccccc4c3nn12`, for which the zone of inhibition at 20000 µg/mL in data set [37] was 10 mm.
